For eleven compounds, IC50, inhibition and Inhibition results are on record in ChEMBL document CHEMBL1151098, “Design of pyrrolo-1,4-benzoxazine derivatives as inhibitors of 5-lipoxygenase and PAF antagonists with anthihistaminic properties” (Bioorg Med Chem Lett, 1994).

The target in test [1] is T1, Polyunsaturated fatty acid 5-lipoxygenase (Rattus norvegicus, UniProt P12527).
T1 sequence (P12527 whole entry): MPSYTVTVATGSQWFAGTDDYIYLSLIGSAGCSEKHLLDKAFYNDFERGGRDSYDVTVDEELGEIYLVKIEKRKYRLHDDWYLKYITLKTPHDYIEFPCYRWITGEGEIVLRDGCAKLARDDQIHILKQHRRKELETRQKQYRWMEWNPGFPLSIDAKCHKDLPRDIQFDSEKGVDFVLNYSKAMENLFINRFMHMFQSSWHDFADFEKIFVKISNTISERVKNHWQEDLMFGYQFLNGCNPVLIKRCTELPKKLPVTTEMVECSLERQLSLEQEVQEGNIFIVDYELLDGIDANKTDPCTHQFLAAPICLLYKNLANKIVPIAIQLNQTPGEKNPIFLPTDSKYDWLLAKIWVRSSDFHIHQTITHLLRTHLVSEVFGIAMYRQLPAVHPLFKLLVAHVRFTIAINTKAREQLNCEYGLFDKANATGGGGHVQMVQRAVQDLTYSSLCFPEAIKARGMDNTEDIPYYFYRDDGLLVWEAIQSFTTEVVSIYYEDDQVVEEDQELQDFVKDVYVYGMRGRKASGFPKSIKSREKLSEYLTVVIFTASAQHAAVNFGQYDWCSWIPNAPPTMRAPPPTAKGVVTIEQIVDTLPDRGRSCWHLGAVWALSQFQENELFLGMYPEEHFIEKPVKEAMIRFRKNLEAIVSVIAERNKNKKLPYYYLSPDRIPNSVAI
Put plainly: Inhibitory activity against 5-lipoxygenase in rat neutrophils as inhibition of A 23,187-induced LTB4 production.

The species entered for test [2] is Oryctolagus cuniculus. Put plainly: Inhibitory activity of PAF-induced aggregation was determined on rabbit platelets; Not active at 10e-5 M. It is filed as functional.
Test [3] is described as follows: In vivo inhibitory activity of histamine induced cutaneous reaction was determined at a conc. of 2.1E-5 mol/ Kg; Not active. It is filed as functional, organism-based.
The species entered for test [4] is Oryctolagus cuniculus. Put plainly: Inhibitory activity of PAF-induced aggregation was determined on rabbit platelets. It is filed as functional.
Test [5] is described as follows: In vivo inhibitory activity of histamine induced cutaneous reaction was determined at a conc. of 2.1E-5 mol/ Kg. It is filed as functional.

Active and inactive are the calls of the source. The rule behind the calls is not given here.

The term IC50 denotes the midpoint of a concentration-inhibition curve. Higher therefore signals weaker potency in that assay. As to `COc1ccc2[nH]c(-c3cc(C)c(O)c(C)c3)c(C)c2c1`, the IC50 is 0.11 µM in test [1] and “Not Active” in the test filed under Oryctolagus cuniculus [2]. The inhibition result in test [3] is “inactive”.

The Inhibition is how much of the control response was suppressed. Higher therefore signals a strong effect. With `COc1cc2c3c(c1)c(C)c(-c1cc(C)c(O)c(C)c1)n3CC(CCN1CCN(c3cc(C)ccn3)CC1)O2` (stereo not drawn), the IC50 in test [1] is 7.6 µM; in the test listed under Oryctolagus cuniculus [4], 2.9 µM. The compound also displayed an Inhibition in test [5] of 32%.

Regarding `Cc1ccc(N2CCN(CCC3Cn4c(-c5ccc(O)cc5)c(C)c5cccc(c54)O3)CC2)nc1` (stereo not drawn), the 50% inhibitory concentration (IC50) was found to be 3.1 µM in test [1] and 9.9 µM in the test filed under Oryctolagus cuniculus [4]. In test [5], this compound registered an Inhibition of 58%.

Consider `Cc1ccnc(N2CCN(CCC3Cn4c(-c5ccc(O)cc5)c(C)c5cccc(c54)O3)CC2)c1` (stereo not drawn), for which the half-maximal inhibitory concentration (IC50) in test [1] was 3 µM; in the test filed under Oryctolagus cuniculus [4], 2.7 µM. The Inhibition in test [5] is given as 10%.

As for `COc1cc(-c2c(C)c3cccc4c3n2CC(CCN2CCN(c3cc(C)ccn3)CC2)O4)ccc1O` (stereo not drawn), the IC50 stood at 3.2 µM in test [1] and 5 µM in the test filed under Oryctolagus cuniculus [4]. Further, the Inhibition in test [5] is listed as 2%.

Turning to `Cc1ccnc(N2CCN(CCC3Cn4c(-c5cc(C)c(O)c(C)c5)c(C)c5cccc(c54)O3)CC2)c1` (stereo not drawn), the IC50 in test [1] was 1.5 µM; in the test listed under Oryctolagus cuniculus [4], 1.6 µM. This compound yielded an Inhibition in test [5] of 15%.

Take `Cc1ccnc(N2CCN(CCC3Cn4c(-c5ccc(O)c(O)c5)c(C)c5cccc(c54)O3)CC2)c1` (stereo not drawn): the 50% inhibitory concentration (IC50) stood at 1.9 µM in test [1] and 4.7 µM in the test filed under Oryctolagus cuniculus [4]. For the same compound, the inhibition result in test [3] was “inactive”.

As for `Cc1ccnc(N2CCN(CCC3Cn4c(-c5cc(C)c(O)c(C)c5)c(C)c5cc(O)cc(c54)O3)CC2)c1` (stereo not drawn), the half-maximal inhibitory concentration (IC50) in test [1] amounted to 0.29 µM; in the test filed under Oryctolagus cuniculus [4], 0.45 µM. The compound also registered an Inhibition in test [5] of 37%.

On to `Cc1cccnc1N1CCN(CCC2Cn3c(-c4ccc(O)cc4)c(C)c4cccc(c43)O2)CC1` (stereo not drawn), for which the results for the IC50 (in test [1]; in the test listed under Oryctolagus cuniculus [4]) were 2.3 µM and 7.2 µM, respectively. The compound further returned an Inhibition in test [5] of 57%.

Consider `Cc1c(-c2ccc(O)cc2)n2c3c(cccc13)OC(CCN1CCN(c3ccccn3)CC1)C2` (stereo not drawn), for which the values for the IC50 (in test [1]; in the test filed under Oryctolagus cuniculus [4]) were 2.2 µM and 8.1 µM, respectively. The compound also showed an Inhibition in test [5] of 47%.

Turning to `Cc1cccc(N2CCN(CCC3Cn4c(-c5ccc(O)cc5)c(C)c5cccc(c54)O3)CC2)n1` (stereo not drawn), the values for the IC50 (in test [1]; in the test listed under Oryctolagus cuniculus [4]) were 3.3 µM and 10.2 µM, respectively. The same compound displayed an Inhibition in test [5] of 39%.
